For eight compounds, TGI and GI50 results are on record in PubChem BioAssay (NCI).

Assay in all cases: growth of human tumour cells (NCI), 48 h
Assay [1] concerns TK-10 renal.
For assay [2], the system named is UACC-257 melanoma.
Assay [3] relates to HCT-15 colon.
Assay [4] deals with OVCAR-4 ovarian.
Assay [5] relates to DU-145 prostate.
The test system of assay [6] is MOLT-4 leukemia.
Assay [7] relates to MDA-MB-231 breast.
For assay [8], the system named is LOX IMVI melanoma.
Assay [9] concerns HOP-92 NSCLC.
Assay [10] relates to UO-31 renal.

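Interpolation was linear, between the two tested concentrations surrounding the appropriate level; five concentrations were tested over 48 hours in 96-well plates. Here, GI50 denotes the concentration required for 50% inhibition of growth. TGI denotes the concentration required for complete inhibition of growth.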

On to `COc1cc2c(cc1OC)[C@H](C)N1CCc3cc(OC)c(OC)cc3[C@@H]1C2`, for which the TGI in assay [1], in [2], in [3], in [4], in assay [5] and in assay [6] was above 100 µM throughout. Also, the TGI in assay [7], in assay [8], in [9] and in assay [10] was above 100 µM throughout.

Take `O=C(Nc1cccc(-n2cc(-c3ccncc3)c(-c3ccc(Cl)c(O)c3)n2)c1)Nc1cc(C(F)(F)F)cc(C(F)(F)F)c1`: the GI50 in assay [1] was 0.843 µM; in assay [2], 0.89 µM; in assay [3], 0.591 µM; in assay [4] it was 0.795 µM; in [5], 0.963 µM; in assay [6], 1.15 µM. Further, the GI50 is 0.768 µM in assay [7], 0.712 µM in assay [8], 0.196 µM in [9] and 0.676 µM in [10]. Also, the TGI in [1] was 2.75 µM; in assay [2] it was 2.24 µM; in assay [3] it was 3.01 µM; in assay [4], 3.28 µM; in [5], 2.94 µM; in assay [6] it was 4.36 µM. In addition, the TGI came to 1.66 µM in [7], 1.4 µM in assay [8], 1.15 µM in assay [9] and 1.77 µM in assay [10].

Turning to `Cc1cc([N+](=O)[O-])c(NS(=O)(=O)c2cccc(C(=O)O)c2)cc1-c1cccnc1`, the GI50 in [1], in assay [2], in assay [3], in assay [4], in assay [5] and in assay [6] was above 100 µM in each case. Also, the GI50 in [7], in assay [8], in assay [9] and in [10] was above 100 µM in each case. Also, the TGI in assay [1], in [2], in [3], in assay [4], in assay [5] and in [6] was above 100 µM each time. Moreover, the TGI in assay [7], in assay [8], in assay [9] and in [10] was above 100 µM each time.

For `C=C(C(N)=O)c1ccc([N+](=O)[O-])o1`, the TGI in assay [1] worked out at 27.2 µM; in assay [2], 21.7 µM; in assay [3], 27.9 µM; in assay [4], 29 µM; in [5], 23.4 µM; in assay [6], 18.8 µM. The TGI in [7] was found to be 29.8 µM; in assay [8] it was 23.1 µM; in assay [9], 19.5 µM.

Take `NCCCC[C@@H]1NC(=O)[C@H]2CCCN2C(=O)[C@H](Cc2ccccc2)CNC(=O)[C@H](Cc2ccccc2)NC1=O`: the GI50 in [1], in assay [2], in assay [3], in assay [4], in assay [5] and in assay [6] was above 37.5 µM in each case. Further, the GI50 in [7], in assay [8], in [9] and in [10] was above 37.5 µM in each case. Also, the TGI in assay [1], in assay [2], in assay [3], in assay [4], in [5] and in assay [6] was above 37.5 µM throughout. Besides, the TGI in assay [7], in assay [8], in [9] and in assay [10] was above 37.5 µM throughout.

As to `COc1cccc(-c2c[nH]c3c(N/N=C/c4ccncc4)ncnc23)c1`, the GI50 was 4.15 µM in assay [1]; 6.02 µM in assay [2]; 1.46 µM in assay [3]; 2.65 µM in [4]; 2.23 µM in assay [5]; 4.42 µM in assay [6]. Further, the GI50 is 3.83 µM in assay [7], 1.27 µM in assay [8], 4.96 µM in [9] and 1.75 µM in assay [10]. The TGI was 20.6 µM in assay [1]; 17.5 µM in assay [2]; above 25 µM in assay [3]; 11.1 µM in assay [4]; above 15.2 µM in assay [5]; 19.6 µM in [6]. Further, the TGI in [7] is above 22.9 µM; in assay [8], 6.73 µM; in assay [9], 19.2 µM; in assay [10], above 23.7 µM.

For `CN(C)CCN1C(=O)c2c(c3c4ccccc4n4c3c3c2c2ccccc2n3C2CC(O)C(O)C4(C)O2)C1=O` (centres undefined), the GI50 in [1] is 1.32 µM; in assay [2] it was 3.32 µM; in [3] it was 1.59 µM; in assay [4], 2.69 µM; in [5], 1.12 µM; in assay [6] it was 0.209 µM. Further, the GI50 in assay [7] was 2.61 µM; in [8], 0.448 µM; in assay [9] it was 2.6 µM; in [10], 1.71 µM. Also, the TGI in assay [1] worked out at 13.5 µM; in [2], 9.79 µM; in [3] it was 8.72 µM; in assay [4], 13.6 µM; in [5], 9.42 µM; in [6], 10.9 µM. Moreover, the TGI in [7] came to 11.5 µM; in assay [8], 1.89 µM; in [9] it was 11.9 µM; in assay [10], 13.9 µM.

For `Cc1c(C(=O)Nc2ccccc2)sc2ncn(Cc3cccc(Cl)c3)c(=O)c12`, the GI50 was 11.7 µM in assay [1]; 34.4 µM in assay [2]; 13.2 µM in assay [3]; 27.8 µM in assay [4]; 34.9 µM in assay [5]; 51.8 µM in assay [6]. Moreover, the GI50 was 12.1 µM in [7], 57.3 µM in [8], 16.5 µM in assay [9] and 13 µM in assay [10]. The TGI in [1], in assay [2], in [3], in [4], in [5] and in [6] was above 100 µM in each case. For the same compound, the TGI in [7] is 38.2 µM; in [8], above 100 µM; in [9] it was 40.5 µM; in assay [10], 39.7 µM.
